Patent US20090220534A1, “METHODS FOR IDENTIFYING T-CELL EPITOPES ASSOCIATED WITH IMPAIRED PEPTIDE PROCESSING AND APPLICATIONS OF THE IDENTIFIED EPITOPES” (Leiden University Medical Center, priority 2006, published 2009)

Experiments:
Db-restricted TEIPP CTL = experiment: Peptide recognition by Db-restricted TEIPP CTL (IFNγ release); assay type: cell-based, mouse; conditions: synthetic peptide in titrating amounts
From the text: Kb-restricted (a) and Db-restricted TEIPP-CTL (b) respond to human TAP-deficient T2 cells with stable expression of Kb or Db when exogenously loaded with synthetic peptide libraries. Libraries contained peptides with Kb- or Db-binding motifs, Kb lib: xxxxFxxI/L/M (complexity of approximately 108) and Db lib: xxxxNxxxI/L/M (complexity of approximately 109), where x is random for all amino acids. (c-d) Db molecules from RMA-S cells (1011) were immunoaffinity purified and acid eluted peptides were separated by reversed phase HPLC, applying an increasing acetonitril gradient (OD214 left axis, % acetonitril right axis) (c). HPLC fractions were loaded unto T2.Db cells and TEIPP-specific, Db-restricted CTL were applied to detect the eluted peptide-epitope (d). […] Of note, CTL recognition of HPLC fractions depended on the presence of the relevant class I molecule on target cells (not shown). (e) MCLRMTAVM peptide is processed and presented from the Trh4 gene. The Trh4 gene was cloned from RMA-S cells using gene-specific primers. Trh4 gene in the reversed orientation (Trh4r) served as control plasmid. […]
(§1) Cytolytic activity of CTL was measured by chromium (^51Cr) release assay, as described before (16). CTL reactivity was also measured by IFNγ release. […] IFNγ content of supernatants was measured by sandwich ELISA technique (at OD 415) as described (47). […]

[1] = system: TAP-deficient RMA-S lymphoma cells; experiment: Peptide immunization and challenge with RMA-S tumor cells; assay type: in vivo; conditions: with T helper peptide and CpG oligonucleotides, B6 mice
From the text: Groups of B6 mice (n=10) were immunized with synthetic peptides comprising TEIPP Db peptide MCLRMTAVM or control Db peptide SSPVNSLRNVV51 combined with T helper peptide EPLTSLTPRCNTAWNRLKL29 and CpG oligonucleotides 28 and challenged with TAP-deficient RMA-S lymphoma cells. Mice were challenged at day 0 and immunized at days −14, 7 and 14. Immunization with irradiated RMA-S.B7 cells served as positive control.
We therefore immunized groups of mice with the newly identified Db-restricted TEIPP CTL epitope, or a control CTL epitope, in combination with a previously identified tumor-specific CD4+ T-helper epitope (29), and challenged the mice with a tumorigenic dose of RMA-S cells.
B6 mice were immunized with synthetic peptides by s.c. injections of 100 μg of peptide, 50 μg T-helper peptide EPLTSLTPRCNTAWNRLKL 29 and 40 μg Toll-Like Receptor 9 ligand CpG oligonucleotides 28 per mouse in a total volume of 200 μl PBS. Mice were challenged s.c. at the opposite flank with 8×10^5 RMA-S cells in PBS.

[2] = system: MC38 colon carcinoma cells and B16 melanoma cells; experiment: TAP1 antisense oligonucleotide treatment of tumor cells, recognition by TEIPP-specific CTL (IFNγ release); assay type: cell-based, mouse
Procedure: (§2) (a) TEIPP-specific CTL were incubated with a panel of TAP-expressing syngeneic tumor cells (see Materials and Methods for descriptions of tumor cell lines). CTL response against TAP-deficient RMA-S in this experiment was 44 ng/ml. (b) Pre-treatment of TAP-expressing T-cell lymphoma (RMA) and B-cell lymphoma (786) cells with IFNγ reduced the reactivity of TEIPP-specific CTL, as measured after 6 h. […] Panels depict means of triplicate wells and one of three experiments is shown. (c-e) TAP-expressing RMA tumor cells were treated with the proteasome inhibitor lactacystin and used as targets for cytolysis by two independent TEIPP-specific CTL (c and d) or control RMA-specific CTL (e). […] One representative experiment of three is shown. […] (f-g) TAP-expressing colon carcinoma MC38 (f) and melanoma B16 (g) were loaded with oligo DNA coding a partial antisense sequence of TAP1. Recognition by TEIPP-specific CTL was measured by IFNγ release. […]
(§3) In order to make an inventory of the deficiencies that can result in TEIPP expression, we assessed the effect of several targeted interventions in the MHC class I processing pathway. […]
as §1

[3] = system: TAP-expressing RMA tumor cells; experiment: Proteasome inhibitor treatment of target cells, cytolysis by CTL (chromium release); assay type: cell-based, mouse; conditions: RMA cells treated with proteasome inhibitor
Procedure: as §2, §3, §1

[4] = system: RMA, 786 and RMA-S tumor cells; experiment: IFNγ pre-treatment of tumor cells, recognition by CTL; assay type: cell-based, mouse
Procedure: (a) TEIPP-specific CTL were incubated with a panel of TAP-expressing syngeneic tumor cells (see Materials and Methods for descriptions of tumor cell lines). CTL response against TAP-deficient RMA-S in this experiment was 44 ng/ml. (b) Pre-treatment of TAP-expressing T-cell lymphoma (RMA) and B-cell lymphoma (786) cells with IFNγ reduced the reactivity of TEIPP-specific CTL, as measured after 6 h. […] Panels depict means of triplicate wells and one of three experiments is shown. (c-e) TAP-expressing RMA tumor cells were treated with the proteasome inhibitor lactacystin and used as targets for cytolysis by two independent TEIPP-specific CTL (c and d) or control RMA-specific CTL (e). […] One representative experiment of three is shown. […] (f-g) TAP-expressing colon carcinoma MC38 (f) and melanoma B16 (g) were loaded with oligo DNA coding a partial antisense sequence of TAP1. Recognition by TEIPP-specific CTL was measured by IFNγ release. […] (h) Tapasin−/− LPS B cell blasts are recognized by TEIPP-specific CTL in a CD8-dependent manner. Spleens of TAP1−/−, Tapasin−/− or wild type B6 mice were cultured with LPS and used as targets for TEIPP-specific CTL.
Thus far, only cells of hematopoietic origin had been tested against TEIPP-specific CTL. […] Likewise, TEIPP-specific CTL recognized immortalized mouse embryo fibroblasts from TAP1−/− origin (FIG. 2c). […] For instance, RMA, the TAP-expressing counterpart of RMA-S against which these T cells were raised, was also recognized by TEIPP-directed CTL, albeit to lower extent (FIG. 3a). Furthermore, the TEIPP-specific CTL recognized two independent TAP-expressing murine leukemia virus-induced B cell lymphomas (FIG. 3a, lines 771 and 786) and, of the tumor targets of non-hematopoietic origin, HPV type 16-transformed fibroblasts (FIG. 3a, line TC1). All these tumor cells expressed TAP, as illustrated by the fact that they serve as proper targets for control CTL that react against defined, TAP-dependent epitopes 15, 16. We therefore considered the possibility that partial deficiencies in MHC class I antigen processing may account for the recognition of several TAP-expressing murine tumor cells by TEIPP-specific CTL. Such partial defects are commonly found in human cancers 5. We examined this idea by treatment of RMA cells with IFNγ, which is known to enhance MHC class I antigen processing at multiple levels, including the transcription of TAP 17. […] In contrast, recognition by RMA-specific control CTL was increased (data not shown).
as §1

In the case of MCLRMTAVM, the “recognition by Db-restricted TEIPP CTL” value (Db-restricted TEIPP CTL) is reported as “efficiently recognized by the Db-restricted TEIPP CTL, at much lower concentration than the mimotope peptide” and the “tumor protection after immunization” value [1] is reported as “tumor protection in the majority of mice”.

With “TAP1-specific anti-sense oligonucleotides: 'morpholino' oligonucleotides encoding the antisense sequence of mouse TAP1 (5′-AGAGTCTGGTCCTAGCCTGGGA-3′) (all phosphorodiamidate morpholino (PMO))” the “recognition of treated cells by TEIPP-specific CTL” value [2] was “increased recognition by TEIPP-specific CTL”.

In the case of `CC(=O)N[C@@H](CSC(=O)[C@]1([C@@H](O)C(C)C)NC(=O)[C@H](C)[C@@H]1O)C(=O)O` [lactacystin], the “recognition of treated RMA cells by control CTL” value [3] is reported as “decreased” and the “sensitivity of treated RMA cells to lysis by TEIPP-specific CTL” value [3] is reported as “increased their sensitivity to lysis by these CTL”.

In the case of “control peptide: control Db peptide SSPVNSLRNVV used for immunization”, the “tumor protection after immunization” value [1] is reported as “developed progressively growing tumors”.

With “IFNγ: interferon gamma used to pre-treat tumor cells” the “recognition of pretreated cells by TEIPP-specific CTL” value ([4]; RMA cells) was “reduced recognition of these cells by TEIPP-specific CTL”, the “recognition of pretreated cells by RMA-specific control CTL” value ([4]; RMA cells, data not shown) was “increased” and the “MHC class I surface expression” value ([4]; RMA cells, not shown) was “increased three-fold”. The “recognition of pretreated cells by CTL” value ([4]; RMA-S cells, data not shown) was “did not result in an increased recognition”.
